Some test systems named below: ACHN renal; CCRF-CEM leukemia; HT29 colon; M14 melanoma; RPMI-8226 leukemia; RXF 393 renal; SF-539 CNS; SNB-75 CNS; OVCAR-4 ovarian; NCI/ADR-RES ovarian.
Assay in all cases: inhibition of tumour cell growth, NCI panel, 48 h

Structures are written as SMILES.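 In this assay, cells in 96-well plates receive the compound at five concentrations for 48 hours. Endpoints are linearly interpolated between the surrounding concentrations. At the GI50, growth is halved. TGI is the concentration that stops growth completely.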

Regarding `CN1C2C=C(c3ccccc3)CC1CC2` (centres undefined), the TGI with ACHN renal, with CCRF-CEM leukemia, in the assay on HT29 colon, in the assay with M14 melanoma, in the assay with RPMI-8226 leukemia and in the assay with RXF 393 renal was above 100 µM throughout. Further, the TGI with SF-539 CNS and in the assay with SNB-75 CNS was above 100 µM throughout.

As to `CCCCN(CCCC)CCCCNc1c(C)cnc2cc(Cl)ccc12`, the TGI in the assay on ACHN renal is above 100 µM; in the assay on CCRF-CEM leukemia it was above 100 µM; with HT29 colon, 57.8 µM; in the assay with M14 melanoma, 4.05 µM; in the assay on OVCAR-4 ovarian, above 100 µM; with RXF 393 renal, 31 µM. In addition, the TGI in the assay on SF-539 CNS turned out to be 27 µM.

For the compound `O=C(Nc1nc2ccc([N+](=O)[O-])cc2[n+]([O-])n1)C(F)(F)F`, the TGI with ACHN renal is 90.8 µM; in the assay with CCRF-CEM leukemia, above 100 µM; with HT29 colon, above 100 µM; in the assay with M14 melanoma it was above 100 µM; in the assay on NCI/ADR-RES ovarian, above 100 µM; with OVCAR-4 ovarian, above 100 µM. The TGI in the assay on RPMI-8226 leukemia is 41.4 µM; in the assay on RXF 393 renal it was above 100 µM; with SF-539 CNS, above 100 µM; with SNB-75 CNS it was above 100 µM.

`CC(C)=CCc1c(C)cc2cc3c(c(O)c2c1O)C(O)=CC(=O)C3(CC=C(C)C)C/C=C(\C)CO` (centres undefined): the TGI in the assay with CCRF-CEM leukemia came to 60.1 µM; with HT29 colon, 81.4 µM; in the assay with NCI/ADR-RES ovarian it was 102 µM; in the assay with OVCAR-4 ovarian it was 87 µM; in the assay with RPMI-8226 leukemia, 67.6 µM; with RXF 393 renal, 63.4 µM. In addition, the TGI with SF-539 CNS is 76.2 µM; in the assay on SNB-75 CNS it was 92.8 µM.

As to `CCOc1ccc2c(ccc(/C=C\c3cc(C)c4cccnc4c3O)[n+]2C)c1`, the TGI in the assay on ACHN renal is 21.4 µM; in the assay with HT29 colon, above 32.8 µM; with M14 melanoma it was 18.7 µM; in the assay on NCI/ADR-RES ovarian, above 100 µM; with OVCAR-4 ovarian, 18.6 µM; in the assay with RPMI-8226 leukemia, 13.2 µM. For the same compound, the TGI came to 18.9 µM in the assay with RXF 393 renal, 10.9 µM in the assay on SF-539 CNS and 15 µM in the assay on SNB-75 CNS.

For the compound `Cc1ccc(S(=O)(=O)Oc2cc(S(=O)(=O)O)cc3cc(S(=O)(=O)O)cc(N)c23)cc1`, the TGI in the assay with ACHN renal, with CCRF-CEM leukemia, in the assay on HT29 colon, in the assay on M14 melanoma, in the assay with NCI/ADR-RES ovarian and in the assay with OVCAR-4 ovarian was above 100 µM each time. In addition, the TGI in the assay on RPMI-8226 leukemia, in the assay on RXF 393 renal, in the assay on SF-539 CNS and in the assay on SNB-75 CNS was above 100 µM each time.

With `COc1cc2c3c(n(CCN(C)C)c(=O)c2cc1OC)-c1cc2c(cc1C3=O)OCO2`, the TGI was above 100 µM in the assay on ACHN renal; 1.61 µM in the assay with CCRF-CEM leukemia; above 73.4 µM with HT29 colon; above 100 µM in the assay on M14 melanoma; above 40 µM in the assay on NCI/ADR-RES ovarian; above 100 µM in the assay on OVCAR-4 ovarian. Also, the TGI is 19.2 µM in the assay with RPMI-8226 leukemia, above 57.9 µM with RXF 393 renal, 1.59 µM in the assay with SF-539 CNS and above 100 µM in the assay on SNB-75 CNS. For the same compound, the GI50 in the assay on CCRF-CEM leukemia was 0.294 µM; in the assay with NCI/ADR-RES ovarian, 0.315 µM; in the assay with OVCAR-4 ovarian, above 38.2 µM; in the assay on RPMI-8226 leukemia, 0.0315 µM; in the assay with SNB-75 CNS it was 8.22 µM.

With `Nc1ncnc2c1ncn2C1CCC(CO)O1` (centres undefined), the TGI in the assay on CCRF-CEM leukemia was above 100 µM; in the assay on HT29 colon, above 67.2 µM; with NCI/ADR-RES ovarian, above 77.4 µM; in the assay with OVCAR-4 ovarian, above 89.1 µM; with RPMI-8226 leukemia, above 100 µM; in the assay on RXF 393 renal it was above 100 µM. The TGI in the assay with SF-539 CNS and in the assay with SNB-75 CNS was above 100 µM in each case.

For the compound `CCN(CC)CCCC(Nc1c2ccc(Cl)cc2nc2ccc(OC)cc12)c1ccc(F)cc1` (centres undefined), the GI50 with ACHN renal was 1.97 µM; in the assay with CCRF-CEM leukemia, 2.4 µM; in the assay on HT29 colon, 2.7 µM; in the assay with M14 melanoma, 1.88 µM; in the assay on NCI/ADR-RES ovarian, 2.38 µM; with OVCAR-4 ovarian, 1.71 µM. The GI50 is 2.18 µM in the assay on RPMI-8226 leukemia, 1.51 µM with RXF 393 renal, 1.73 µM in the assay with SF-539 CNS and 1.21 µM in the assay with SNB-75 CNS. The TGI in the assay with ACHN renal was found to be 3.64 µM; in the assay with CCRF-CEM leukemia, 6.49 µM; with HT29 colon it was 9.87 µM; in the assay with M14 melanoma it was 3.58 µM; in the assay with NCI/ADR-RES ovarian, 5.75 µM; in the assay on OVCAR-4 ovarian, 4.71 µM. In addition, the TGI turned out to be 5.36 µM in the assay on RPMI-8226 leukemia, 3.13 µM in the assay with RXF 393 renal, 3.25 µM in the assay with SF-539 CNS and 2.66 µM in the assay with SNB-75 CNS.

For `C[C@]12C=CC(=O)C=C1CC[C@@H]1[C@@H]2C(=O)C[C@@]2(C)[C@H]1CC[C@]2(O)C(=O)CO`, the TGI in the assay on ACHN renal, with CCRF-CEM leukemia, with HT29 colon, in the assay with M14 melanoma, in the assay with NCI/ADR-RES ovarian and in the assay with OVCAR-4 ovarian was above 100 µM each time. Moreover, the TGI with RPMI-8226 leukemia, in the assay with RXF 393 renal, in the assay on SF-539 CNS and with SNB-75 CNS was above 100 µM in each case.

For the compound `[C-]#[O+].[Cl][Sn]([Cl])[Cl].[Cl][Sn]([Cl])[Cl].[Pt].c1ccncc1`, the TGI in the assay with CCRF-CEM leukemia, in the assay on HT29 colon, with NCI/ADR-RES ovarian, in the assay on OVCAR-4 ovarian, in the assay with RPMI-8226 leukemia and in the assay with RXF 393 renal was above 100 µM each time. The TGI in the assay with SF-539 CNS and in the assay on SNB-75 CNS was above 100 µM each time. For the same compound, the GI50 in the assay with NCI/ADR-RES ovarian is above 100 µM.

For the origin of these results see PubChem BioAssay (NCI).
